In patent US20080200682A1, “Process of Producing Bleach Boosters” (BASF Aktiengesellschaft, priority 2005, published 2008):
Counter-ions that a name gives are not always drawn.

Legend:
Assay type in all cases: biochemical
[1] = test system: Amylase enzymes: Termamyl, Natalase, and Duramyl; assay: Organic Catalyst/Enzyme Compatibility Test, average ECV of the three enzymes; details: ECV=(ECVter+ECVdur+ECVnat)/3; [Peracetic Acid]=5.0 ppm; [organic catalyst]=0.5 ppm
[2] = test system: Natalase (amylase enzyme); assay: Organic Catalyst/Enzyme Compatibility Test (alpha amylase activity assay), Natalase; details: (Ac/Ab)x100 for Natalase; [Peracetic Acid]=5.0 ppm; [organic catalyst]=0.5 ppm; detergent solution, 40° C.
[3] = molecular target: T1, Termamyl (amylase enzyme) (Bacillus licheniformis, UniProt P06278)
T1 construct: purchased Novozymes, Denmark
T1 sequence (P06278 30-512): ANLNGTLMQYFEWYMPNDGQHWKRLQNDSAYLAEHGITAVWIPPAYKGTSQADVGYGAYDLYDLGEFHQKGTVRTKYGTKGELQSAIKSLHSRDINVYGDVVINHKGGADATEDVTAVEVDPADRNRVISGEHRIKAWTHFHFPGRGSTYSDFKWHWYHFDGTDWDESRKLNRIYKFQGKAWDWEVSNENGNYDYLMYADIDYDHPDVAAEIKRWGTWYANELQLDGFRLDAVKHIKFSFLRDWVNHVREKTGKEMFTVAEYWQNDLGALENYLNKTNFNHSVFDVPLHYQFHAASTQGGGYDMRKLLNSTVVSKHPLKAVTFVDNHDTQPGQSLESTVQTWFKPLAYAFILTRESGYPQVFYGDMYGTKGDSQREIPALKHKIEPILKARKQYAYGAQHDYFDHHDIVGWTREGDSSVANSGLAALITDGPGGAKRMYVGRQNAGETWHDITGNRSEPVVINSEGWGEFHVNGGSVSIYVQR

Duramyl (amylase enzyme) = assay: Organic Catalyst/Enzyme Compatibility Test (alpha amylase activity assay), Duramyl; details: (Ac/Ab)x100 for Duramyl; [Peracetic Acid]=5.0 ppm; [organic catalyst]=0.5 ppm; detergent solution, 40° C.

Molecule	Enzyme Compatibility Values ECV [1]	Enzyme Compatibility Values ECVnat [2]	Enzyme Compatibility Values ECVter [3]	Enzyme Compatibility Values ECVdur (Duramyl (amylase enzyme))
Sulfuric acid mono-[2-(3,4-dihydro-isoquinolin-2-yl)-1-(iso-tridecyloxymethyl)-ethyl]ester, internal salt [Entry 8]	100	101	99	100
CCCCCCC(CCCC)COCC(C[N+]1=Cc2ccccc2CC1)OS(=O)(=O)[O-] (stereo not drawn) [Entry 4, Sulfuric acid mono-[2-(3,4-dihydro-isoquinolin-2-yl)-1-(2-butyl-octyloxymethyl)-ethyl]ester, internal salt]	101	102	101	101
CCCCC(CC)COCC(C[N+]1=Cc2ccccc2CC1)OS(=O)(=O)[O-] (stereo not drawn) [Entry 2, reference compound]	67	57	54	90
Sulfuric acid mono-[2-(3,4-dihydro-isoquinolin-2-yl)-1-(iso-nonyloxymethyl)-ethyl]ester, internal salt [Entry 6]	90	88	86	96
CCCCCC(CCC)COCC(C[N+]1=Cc2ccccc2CC1)OS(=O)(=O)[O-] (stereo not drawn) [Entry 3, Sulfuric acid mono-[2-(3,4-dihydro-isoquinolin-2-yl)-1-(2-propylheptyloxymethyl)-ethyl]ester, internal salt]	99	99	98	101
Sulfuric acid mono-[2-(3,4-dihydro-isoquinolin-2-yl)-1-(iso-decyloxymethyl)-ethyl]ester, internal salt [Entry 7]	97	96	98	97
